Results reported in paper PMC7995890, “Inhibition of Phosphodiesterase 5 Promotes the Aromatase-Mediated Estrogen Biosynthesis in Osteoblastic Cells by Activation of cGMP/PKG/SHP2 Pathway” (Frontiers in Endocrinology, 2021).

Target: PDE5A (Homo sapiens, UniProt O76074)
Test: PDE-Glo assay with purified recombinant human PDE5A; supported by cellular thermal shift assay in HEK293T lysate
Type: biochemical

IC50: 9.91 µM
Structure (SMILES): COc1ccc(-c2oc3c(CC=C(C)C)c(OCc4ccccc4)cc(O)c3c(=O)c2O)cc1 [compound 14, 7-O-benzylicaritin]
